In this assay the target is ACCase. Conditions: read-out: I50, R biotype, both substitutions found, zygosity not given, stated gain, pH 8.3, 34 °C, 1.5 mM ATP, 5 mM MgCl2, 15 mM NaH14CO3, 5 mM acetyl-CoA. An excerpt: ATP-dependent NaH14CO3 incorporation into acid-stable product on ACCase

Read-outs that look alike come from different tables or passages of the source.

As for `CC(Oc1ccc(Oc2nc3ccc(Cl)cc3o2)cc1)C(=O)O` (stereo not drawn) [Fenoxaprop acid], the IC50 (table prints the ethyl ester, methods state the acid) turned out to be 7.85 µM. Regarding `C[C@@H](Oc1ccc(Oc2ccc(C#N)cc2F)cc1)C(=O)O` [cyhalofop acid], the IC50 (table prints the butyl ester, methods list the acid) is 77.7 µM. Consider `CC(Oc1ccc(Oc2ccc(Cl)cc2Cl)cc1)C(=O)O` (stereo not drawn) [diclofop acid], for which, where the note is “table prints the methyl ester, methods list the acid”, the IC50 turned out to be 7.14 µM. As to `CCc1cc(C)cc(CC)c1-c1c(OC(=O)C(C)(C)C)n2n(c1=O)CCOCC2` [pinoxaden], the IC50 amounted to 9.13 µM. Same read-out and setting: for `CCCC(=NOCC)C1=C(O)CC(CC(C)SCC)CC1=O` (stereo not drawn) [sethoxydim] the value was 1500 µM; for `CCON=C(CC)C1=C(O)CC(c2c(C)cc(C)cc2C)CC1=O` (stereo not drawn) [tralkoxydim], 8.81 µM.

Values taken from publication PMC4613257, “Ile-1781-Leu and Asp-2078-Gly Mutations in ACCase Gene, Endow Cross-resistance to APP, CHD, and PPZ in Phalaris minor from Mexico” (International Journal of Molecular Sciences, 2015).
